Test results as given in US20070098777A1, “Pharmaceutical or Food Composition for Treatment or Prevention of Brain Edema” (AJINOMOTO CO., INC., priority 2000, published 2007).

Experiments:
astrocytes [1] = experiment: Injury of incubated astrocytes by 3-NPA, neutron red assay; format: cell-based, rat; conditions: average ± SE, after 3 days
Description: (§1) Isolation and incubation of astrocytes were conducted according to the method as described in Neuroscience, 87: […], 1998. Thus, cerebral cortex of a fetal rat was removed, from which astrocytes were separated with trypsin treatment at 37° C. for 20 minutes and incubated on a 24 well culture dish containing DMEM media+10% FBS under 5% CO2/air atmosphere at 37° C.
(§2) The injury of incubated astrocytes was induced by replacing the medium with a serum-free DMEM medium (serum-free group) or adding 6 mM of a metabolic inhibitor, 3-nitropropionic acid (3-NPA), to the medium (3-NPA group). The serum-free group and the 3-NPA group were divided into two sub-groups, respectively. To one sub-group of each group, 10 μg/ml of melatonin was added to the medium.
(§3) The number of the alive astrocytes was counted according to the neutron red assay after 3 days from the incubation in the 3-NPA group or according to the MTT (3-(4,5-dimethyl-thiozolyl)-2,5-diphenyl-tetrazolium bromide) assay after 10 days from the replacement of the medium. The test of significance was conducted by ANOVA.

neurons = experiment: MAP-2 staining of brain specimens after brain ischemia; format: in vivo, rat; conditions: 6 mg/kg melatonin for 10 days, versus non-melatonin group
[2] = test system: acute pancreatitis (pancreatic edema) induced by cerulein; conditions: rats; cited from earlier work
blood-brain barrier = experiment: IgG diapedesis area from blood vessel after brain ischemia (anti-IgG staining, NIH imaging); format: in vivo, rat; conditions: average ± SE; 6 mg/kg melatonin into stomach for 10 days from 24 hours after recanalization; 11 rats
Excerpt: Eight to ten-week-old Wister male rats having the body weight of 250 to 300 g were used. Under halothane anesthesia, a 24 G plug was inserted from a right external carotid artery of each rat so as to arrive to an origin of its middle cerebral artery of Willis's circle through its internal carotid artery. Immediately the anesthesia was stopped and the rat was dehypnotized. After one hour, the plug was taken out under halothane anesthesia, thereby a blood flow was recanalized. Ischemic rats in Example 1 were divided into two groups. In the first group (non-melatonin administration group), a physiological saline solution was injected to a stomach of each rat using a sound for 10 days from the first day (24 hours after the recanalization of the blood flow). In the second group (melatonin administration group), a melatonin-containing physiological saline solution was similarly administered in an amount of 6 mg of melatonin per kg of rat.

CA1 hippocampal neurons = conditions: intraperitoneally, especially prior to cerebral ischemia or during recanalization; cited from earlier work
[3] = test system: ischemic or histamine-induced paw edema; conditions: various antioxidants including melatonin, together with dexamethasone; cited from earlier work
[4] = test system: carrageenan-induced inflammatory paw swelling; conditions: rats; cited from earlier work
[5] = test system: production of NO in brain; conditions: after transient ischemia/recirculation; cited from earlier work
astroglia = experiment: GFAP staining of brain specimens after brain ischemia (middle cerebral artery plug, 1 h, recanalization); format: in vivo, rat; conditions: 11 days after onset of ischemia, 6 mg/kg melatonin for 10 days, versus non-melatonin group
Excerpt: Eight to ten-week-old Wister male rats having the body weight of 250 to 300 g were used.
Under halothane anesthesia, a 24 G plug was inserted from a right external carotid artery of each rat so as to arrive to an origin of its middle cerebral artery of Willis's circle through its internal carotid artery. Immediately the anesthesia was stopped and the rat was dehypnotized. After one hour, the plug was taken out under halothane anesthesia, thereby a blood flow was recanalized.
After 11 days from an onset of brain ischemia, the brain of each rat was fixed with an aqueous 4% paraformaldehyde solution to prepare a brain specimen. Then, the brain specimen was stained according to the standard ABC method using an anti-GFAP antibody (GFAP staining; astroglia were stained)
Ischemic rats in Example 1 were divided into two groups. In the first group (non-melatonin administration group), a physiological saline solution was injected to a stomach of each rat using a sound for 10 days from the first day (24 hours after the recanalization of the blood flow). In the second group (melatonin administration group), a melatonin-containing physiological saline solution was similarly administered in an amount of 6 mg of melatonin per kg of rat. […]

astrocytes [6] = experiment: Injury of incubated astrocytes by serum-free medium, MTT assay; format: cell-based, rat; conditions: average ± SE, serum-free DMEM + 10 μg/ml melatonin, after 10 days
Description: as §1, §2, §3

cheek pouch of a hamster = conditions: cited from earlier work

Row | Compound | number of astrocytes (astrocytes [1]; 6 mM 3-NPA alone) | number of astrocytes (astrocytes [1]; 6 mM 3-NPA + 10 μg/ml melatonin, neutral red assay) | number of the alive neurons (neurons) | acute pancreatitis (pancreatic edema) induced by cerulein [2] | IgG diapedesis area, cerebral cortex (blood-brain barrier) | IgG diapedesis area, corpus striatum (blood-brain barrier) | protection of CA1 hippocampal neurons from ischemic injury (CA1 hippocampal neurons) | suppression by dexamethasone of ischemic or histamine-induced paw edema [3] | carrageenan-induced inflammatory paw swelling [4] | production of NO in brain [5] | falling out of astroglia in ischemic core area and gliosis in penumbra area (astroglia) | number of astrocytes (astrocytes [6]) | edema caused by ischemia-reperfusion of microcirculation (cheek pouch of a hamster; hamster cheek pouch) | increase of permeability of capillaries caused by free radicals (cheek pouch of a hamster; topical exposure to hypoxanthine-xanthine oxidase)
1 | O=C(O)CC[N+](=O)[O-] [3-NPA, 3-nitropropionic acid] | 50 ± 5 % of control |  |  |  |  |  |  |  |  |  |  |  |  | 
2 | COc1ccc2[nH]cc(CCNC(C)=O)c2c1 [melatonin, N-[2-(5-methoxy-1H-indol-3-yl)ethyl]acetamide] |  | 63 ± 4 % of control | higher | reduces an acute pancreatitis | 5.5 ± 4.5 mm^2 | 7.2 ± 4.0 mm^2 | protects | enhance or prolong | suppresses | inhibits | reduced | 48 ± 4 % of control | reduces edema | reduces the increase of permeability
